As for `COC(=O)C1CC(Oc2ccc(N)cc2)CN1C(=O)C1(C)CCc2c(C)c(O)c(C)c(C)c2O1` (centres undefined), the melting point lay in the range of 110 to 112 °C.

Consider `CN1C(=O)CCC2(C)c3ccc(CSc4ccccc4)cc3CCC12` (centres undefined), for which the melting point is 144 to 146 °C.

As to `COc1ccc(C2=NN(C3CCCC3)C(=O)[C@H]3CC=CC[C@@H]23)cc1Cl` (relative stereo), the melting point fell in the range of 201 to 202 °C.

Take `Clc1ccc(-c2cc(C3CCN(CCc4ccccc4)CC3)n[nH]2)cc1`: the melting point lay in the range of 169 to 171 °C.

In turn, `CC(=O)N1c2ccccc2[C@H](Nc2ccccc2C(=O)O)C[C@@H]1C` (relative stereo) had a melting point of 122 to 123 °C.

Compound `Cc1ccc2c(c1)C=Cn1c(n[nH]c1=O)C2` yielded a melting point of 232 to 234 °C.

Regarding `COC(=O)Nc1nc2cc(C3(c4ccccc4)OCC(C)(C)CO3)ccc2[nH]1`, the melting point is 224 °C.

In turn, `CN(C)CCN/C(=C1/Sc2ccccc2C1=O)c1ccccc1` had a melting point of 123 to 125 °C.

For the compound `C=C(c1ccc(OC)cc1)c1ccc(N2CCCC2)cc1`, the melting point lay in the range of 159 to 162 °C.

In the case of `CC(=O)Oc1ccc(C=CC(=O)N(c2ccccc2)c2ccccc2)cc1[N+](=O)[O-]`, the melting point lay within 170 to 172 °C.

`COc1ccc(CN(C)CCCc2ccc(NC(=O)c3cccc4c(=O)c5cccc([N+](=O)[O-])c5[nH]c34)cc2)cc1OC` yielded a melting point of 192 °C.

The compound `Nc1cccc(-n2c(=O)c3c(CCc4ccncc4)n[nH]c3c3cccnc32)c1` yielded a melting point of 261 to 263 °C.

The compound `c1ccc(CNc2nccc3[nH]cnc23)cc1` yielded a melting point of 60 to 64 °C.

Compound `COc1ccc(S(=O)(=O)N2CCN(C(=O)c3ccc(Nc4ccnc5cc(C(F)(F)F)ccc45)cc3)CC2)cc1` had a melting point of 221 to 223 °C.

On to `COc1cccc2nc(-c3ccc(C)cc3)cc(OCC(=O)N3CCOCC3)c12`, for which the melting point amounted to 132 °C.

On to `S=C1CN=C(c2ccccn2)c2cc(Cl)ccc2N1`, for which the melting point lay within 217 to 218 °C.

Take `O=C(O)C(O)(c1ccc(F)cc1)c1ccc(F)cc1`: the melting point was 133 to 136 °C.

For `ON=C(c1ccc(Cl)cc1)C1(n2cncn2)CC1`, the melting point lay within 186 to 218 °C.

As to `Cc1nn(-c2cc(O)c(Cl)cc2Cl)c(C)c1Cl`, the melting point was in the range of 172 to 174 °C.

For `N#Cc1cccc(-c2cnc3[nH]c(=O)n(CC4CCCCC4)c3n2)c1`, the melting point is 228 to 230 °C.

Compound `CCCCCCSC[C@H](N[C@@H](C)C(=O)N1CCC[C@H]1C(=O)O)C(=O)O` displayed a melting point of 109 to 112 °C.

Consider `COc1ccc(-c2nc3cnc4ccccc4c3n2CC(C)C)cc1OC`, for which the melting point fell in the range of 192 to 199 °C.

`N#Cc1ccc(-c2ccc3ccccc3c2)cc1Cn1cncn1` had a melting point of 119 to 121 °C.

Compound `COc1ccc(NC(=S)Nc2ccc(NNC=O)cc2)cc1` returned a melting point of 198 to 200 °C.

`Nc1cc(-c2ccc(C(F)(F)F)cc2)no1` registered a melting point of 142 to 144 °C.

`CCCCc1nn2c(-c3ccccc3)cnc2n1Cc1ccc(-c2ccccc2-c2nnn[nH]2)cc1`: the melting point was greater than 70 °C.

For the compound `Cc1cc(C)cc(C(=O)N2CCC(N3CCC(C(=O)O)(c4ccccc4)CC3)CC2Cc2ccccc2)c1` (centres undefined), the melting point came out at 259 °C.

Consider `COc1ccc(/C=N/Nc2ccccn2)cc1OC1CCCC1`, for which the melting point was in the range of 142 to 143 °C.

On to `COc1ccnc(CCc2nc3c(C)cc(C)nc3[nH]2)c1`, for which the melting point lay in the range of 176 to 178 °C.

The compound `O=C(O)c1cc2sccc2nc1C(=O)O` showed a melting point greater than 380 °C.

On to `CCCCNc1ncn(-c2c(CC)cccc2CC)c(=O)n1`, for which the melting point fell in the range of 178 to 179 °C.

Consider `N#Cc1cc(-c2c(-c3ccccc3)nn3ccccc23)c[nH]c1=O`, for which the melting point was 312 to 314 °C.

The compound `COC(=O)C1=C(C)Nc2ccccc2SC1c1ccccc1` (centres undefined) gave a melting point of 154 to 156 °C.

Consider `COc1cc(OC)c(-c2cccs2)cc1C#CC(=O)c1cc(OC)c(OCC(=O)O)c(OC)c1`, for which the melting point lay within 192 to 194 °C.

The melting point is the temperature, or range, at which the solid turns liquid.

The values are drawn from a melting point compilation (Tetko et al.; mined from patent text by program, amines drawn as free bases though some values may be those of a salt).
